Assay results as given in patent US8314126B2, “Disubstituted phenylpiperdines/piperazines as modulators of dopamine neurotransmission” (NSAB, Filial af Neurosearch Sweden AB, Sverige, priority 2004, dated 2012).

Experiments:
[1] = Activity of compounds of Formula 1 (test not specified); details: test not stated
[2] = Oral bioavailability in rat; assay type: in vivo; details: plasma, 12.5 umol/kg, orally 12.5 μmol/kg vs intravenously 5 μmol/kg, ratio of AUC
Procedure: Experiments are performed 24 hours after implantation of arterial and venous catheters. Test compound is administered orally at 12.5 μmol/kg or intravenously at 5 μmol/kg using the venous catheters, n=3 per group. Arterial blood samples are then taken during six hours at 0, 3, 9, 27, 60, 120, 180, 240, 300 and, 360 minutes after administration of the test compound. The oral bioavailability was calculated as the ratio of the AUC (Area under curve) obtained after oral administration over the AUC obtained after intravenous administration for each rat. The parameter AUC was calculated according to the following: […]
AUC: the area under the plasma concentration versus time curve from time zero to the last concentration measured (Clast), calculated by the log/linear trapezoidal method.
The levels of test compound are measured by means of liquid chromatography-mass spectrometry (LC-MS) (Hewlett-Packard 1100MSD Series). The LC-MS module includes a quaternary pump system, vacuum degasser, thermostatted autosampler, thermostatted column compartment, diode array detector and API-ES spray chamber. Data handling was performed with a HP ChemStation rev.A.06.03. system. Instrument settings:MSD mode: Selected ion monitoring (SIM) MSD polarity: Positiv Gas temp: 350° C. Drying gas: 13.0 l/min Nebulizer gas: 50 psig Capillary voltage: 5000 V Fragment or voltage: 70 V
Analytical column: Zorbax eclipse XDB-C8 (4.6*150 mm, 5 μm) at 20° C. The mobile phase was acetic acid (0.03%) (solvent A) and acetonitrile (solvent B). The flow rate of the mobile phase was 0.8 ml/min. The elution was starting at 12% of solvent B isocratic for 4.5 min, then increasing linearity to 60% over 4.5 min.
Extractions procedure: Plasma samples (0.25-0.5 ml) were diluted with water to 1 ml, and 60 pmol (100 μl) internal standard (−)-OSU6241 was added. The pH was adjusted to 11 by the addition of 25 μl saturated Na2CO3. […] The selective ion (MH^+) was monitored for each Example, and MH^+ 296 for (−)-OSU6241 ((3-[3-(ethylsulfonyl)phenyl]-1-propylpiperidine). […]

[3] = Metabolic stability in rat liver microsomes; assay type: in vitro ADME; details: 15 minutes incubation at 37° C., NADPH
Procedure: Rat liver microsomes were isolated as described by Forlin (1980) Tox Appl Pharm. 54(3) 420-430, with minor modifications e.g. 3 mL/g liver of a 0.1 M Na/K*PO4 buffer with 0.15M KCl, pH 7.4, (buffer 1) was added before homogenisation, the homogenate was centrifuged for 20 minutes instead of 15, the supernatant was ultracentrifuged at 100.000 g instead of 105.000 g and the pellet from the ultracentrifugation was resuspended in 1 mL/g liver of 20% v/v 87% glycerol in buffer 1.
1 μL of, 0.2 or 1 mM test substance diluted in water, and 10 μL 20 mg/mL rat liver microsome were mixed with 149 μL, 37° C. buffer 1 and the reaction was started by addition of 40 μL 4.1 mg/mL NADPH. After 0 or 15 minutes incubation at 37° C. in a heating block (LAB-LINE, MULTI-BLOK Heater or lab4you, TS-100 Thermo shaker at 700 rpm) the reaction was stopped by addition of 100 μL pure acetonitrile. […] The test compound was analysed using HPLC-MS (Hewlett-Packard 1100MSD Series) with a Zorbax SB-C18 column (2.1*150 mm, 5 μm) using 0.03% formic acid and acetonitrile as mobile phase (gradient) or a Zorbax Eclipse XDB-C18 (3*75 mm, 3.5 μm) using 0.03% acetic acid and acetonitrile as mobile phase (gradient). The 15 mM turnover was calculated as the fraction of test compound eliminated after 15 minutes, expressed in percent of 0 mM levels, i.e. 100*[conc test compound at 0 mM—concentration at 15 min]/cone at 0 mM. […]

[4] = system: levels of dopamine and norepinephrine in the cortex; assay: Microdialysis in awake and freely moving rats, cortex; assay type: in vivo, rat
Procedure: Remeron is injected (s.c.) at time-point 0. The values depicted in the graph represent percent of control in relation to baseline values. The microdialysis was performed in awake and freely moving rats. Error-bars=SEM
Example 2 is injected (s.c.) at time-point 0. The values depicted in the graph represent percent of control in relation to baseline values. The microdialysis was performed in awake and freely moving rats. Error-bars=SEM
Male Sprague-Dawley rats weighing 220-320 g were used throughout the experiments. Before the experiment the animals were group housed, five animals in each cage, with free access to water and food. The animals were housed at least one week after arrival prior to surgery and use in the experiments. Each rat was used only once for microdialysis.
We use a modified version (Waters, Lofberg et al. 1994) of the I-shaped probe (Santiago and Westerink 1990). […] Co-ordinates were calculated relative to bregma; dorsal striatum AP +1, ML ±2.6, DV −6.3; Pf cortex, AP +3.2, 8° ML ±1.2, DV −4.0 according to (Paxinos and Watson 1986). […]
30 μl of each sample was injected into the chromatograph. […] The currents generated by the two EC detectors are converted to digital data and evaluated using Chromelion software (Dionex, Sunnyvale, Calif.) on a PC. The method sample turn over time was 4.5 min and two parallel experiments are normally analysed simultaneously on the system. […]

MK-801 pre-treated rats = assay: Locomotor activity in MK-801 pre-treated rats; details: MK-801 0.7 mg/kg i.p. alone, recorded between 30 and 60 minutes, ± SEM

**Q.** With `CCCN1CCC(c2cccc(S(C)(=O)=O)c2C(F)(F)F)CC1` [4-[3-(methylsulfonyl)-2-(trifluoromethyl)phenyl]-1-propylpiperidine] as the molecule, how does the activity [1] read?
**A.** inactive

**Q.** For `CCCN1CCC(c2cccc(S(C)(=O)=O)c2F)CC1` [Example 1, 4-[2-FLUORO-3-(METHYLSULFONYL)PHENYL]-1-PROPYLPIPERIDINE], which bioavailability [2] is on record?
**A.** ~100%

**Q.** Which results are given for `CCN1CCC(c2cccc(S(C)(=O)=O)c2F)CC1` [Example 2, 1-ETHYL-4-[2-FLUORO-3-(METHYLSULFONYL)PHENYL]-PIPERIDINE]?
**A.** turnover at 15 minutes [3]: 1%; bioavailability [2]: 87%; levels of dopamine and norepinephrine in the cortex ([4]; 50 μmol/kg s.c., pf. cortex, FIG. 2): elevate the levels of dopamine and norepinephrine in the cortex

**Q.** For `CCCN1CCC(c2cccc(C(F)(F)F)c2C#N)CC1` [Example 7, 2-(1-PROPYLPIPERIDIN-4-YL)-6-(TRIFLUOROMETHYL)BENZONITRILE], which bioavailability [2] is on record?
**A.** 29%

**Q.** Which “Locomotor activity, MK-801” value (MK-801 pre-treated rats) does the source give for `C[C@]12N[C@H](Cc3ccccc31)c1ccccc12` [MK-801] here?
**A.** 51333 ± 2148 counts/30 min

**Q.** Which “extracellular norepinephrine and dopamine in the cortex” value ([4]; 10 mg/kg s.c., cortex, FIG. 1) does the source give for `CN1CCN2c3ncccc3Cc3ccccc3C2C1` (centres unmarked) [mirtazapine, reference compound] here?
**A.** increase predominantly extracellullar norepinephrine and dopamine in the cortex
